Melting point data for 62 compounds are collected here from a melting point compilation (Tetko et al.; mined from patent text by program, amines drawn as free bases though some values may be those of a salt).

Consider `CC(C)C1C(C=C(Br)Br)=CC=CN1C12CC3CC(CC(C3)C1)C2` (configuration not stated), for which the melting point (usually the temperature, or range, at which the solid turns liquid) was in the range of 176 to 177 °C.

Take `O=C(O)Cc1ccc2oc(-c3ccc(N4C=CC=CN4c4ccc(-c5nc6cc(CC(=O)O)ccc6o5)cc4)cc3)nc2c1`: the melting point was greater than 300 °C.

Compound `CCOC(=O)c1c(-c2ccc(O)cc2)c(C#N)c(=O)n2ccccc12` displayed a melting point of 284 to 290 °C.

With `Cc1ccc(NC(=O)c2ccc(O)c(N)c2)cc1C`, the melting point was 220 to 223 °C.

For `CCOC(=O)C=Cc1cc(C=CC(=O)OC(C)(C)C)cc(Oc2cccnc2)c1`, the melting point lay in the range of 116 to 118 °C.

Compound `CN(C)c1ccc(NC(=O)Nc2ccc3c(ccn3C)c2)cn1` showed a melting point of 220 to 226 °C.

For `O=C(COC(=O)C(O)Cc1ccccc1)Oc1ccccc1` (configuration not stated), the melting point is 98 to 99 °C.

Compound `Cc1nnc2n1-c1ccc(Cl)cc1C(c1ccccc1)S2` (configuration not stated) displayed a melting point of 237 °C.

With `COc1ccc(-c2coc3ccc(-c4nnc(S)o4)cc23)cc1`, the melting point was in the range of 204 to 205 °C.

With `O=C(O)c1nccnc1N1CCN(CC(O)CO)CC1` (configuration not stated), the melting point is 175 to 184 °C.

In turn, `Cc1cc(C)cc(Sc2cc(=O)[nH]c(C)c2CO)c1` showed a melting point of 268 to 270 °C.

`COc1ccc(/C=C/C(=O)Nc2ccccc2C(=O)OCC(=O)NCC(C)(C)S)cc1OC` showed a melting point of 148 to 150 °C.

Regarding `O=C(O)COc1c(Cl)cc(Cl)cc1COc1cccc(OCc2ccc3cc(F)ccc3n2)c1`, the melting point fell in the range of 189 to 190 °C.

On to `O=[N+]([O-])c1ccc(OC2(c3ccccc3)CCNCC2)cc1`, for which the melting point lay in the range of 137 to 138 °C.

`COc1ccc(C2=NN(C3CCN(CC(N)=O)CC3)C(=O)CC2)cc1OC` had a melting point of 180 to 182 °C.

For the compound `CC1(C)Oc2ccc(C#N)cc2[C@@H](N2CCCC2=O)[C@@H]1O` (relative stereo), the melting point is 226 °C.

Turning to `COc1ccc(Cc2nc3n(c2Cc2ccc(OC)cc2)CCS3(=O)=O)cc1`, the melting point fell in the range of 231 to 232 °C.

Take `Cn1cnc(COc2nn3c(-c4ccccc4)nnc3cc2-c2ccc(Cl)s2)n1`: the melting point lay within 248 to 250 °C.

As to `N#CCC(=O)Nc1ccc(-c2ncc(C(=O)O)c(O)n2)cc1`, the melting point was greater than 280 °C.

In turn, `Cc1ccc(N2CCCN(c3ccnc4sc(C(N)=O)c(N)c34)CC2)nc1` came in with a melting point of 205 to 208 °C.

`Cc1nc2nc(C(F)(F)F)cc(-c3cccnc3)n2n1` gave a melting point of 195 to 197 °C.

The compound `COc1ccc(C2CC(=O)C(=C3SC4NCCNC4S3)C(=O)C2)cc1` (configuration not stated) yielded a melting point of 160 to 162 °C.

Take `CN1CCN(c2ccc(-c3ccc4c(c3)C=C(C(=O)Nc3ccc(CN(C)C5CCOCC5)cc3)CCO4)cc2)CC1`: the melting point was 220 to 221 °C.

For the compound `O=[N+]([O-])c1ccc2c(c1)CCC(CO)O2` (configuration not stated), the melting point was found to be 96.5 °C.

The compound `CCCC[C@H](NC(=O)[C@H](CC(C)C)NC(=O)COc1ccc(F)cc1)C(=O)CSCc1ccco1` registered a melting point of 88 to 91 °C.

Take `Cc1c(C)c(N2Cc3ccccc3C2)c(C)c2c1OC(C)(C)C2c1ccc(F)cc1` (configuration not stated): the melting point lay in the range of 204 to 205 °C.

Compound `CCOC(=O)c1cccc(-c2cc(C(=O)OCC)c(N)[nH]2)c1` showed a melting point of 136 to 137 °C.

For `CCOC1(OCC)OC(C)=C(C(=O)Nc2ccc(Cl)cc2)[C@@H](NC(C)=O)[C@@H]1C` (relative stereo), the melting point fell in the range of 199 to 201 °C.

As for `COC(=O)c1cccc(CN2C(=O)C(CCOc3ccc(CCNC(=O)OC(C)(C)C)cc3)Oc3ccccc32)c1` (configuration not stated), the melting point lay in the range of 112 to 113 °C.

With `Cc1ccc(CNC(=O)c2nc(N3CCOCC3)n(C)c(=O)c2O)cc1F`, the melting point lay within 166 to 167 °C.

`CCCSc1c(C=NO)c(=O)n(C)c(=O)n1C` returned a melting point of 161 to 162 °C.

In turn, `CC(C#N)(COc1ccc(Cl)cc1Cc1ccccc1)NC(=O)c1ccc(OC(F)(F)F)cc1` (configuration not stated) showed a melting point of 103 to 104 °C.

Compound `Cc1c(Cl)cc(NC(=O)CCl)c(O)c1Cl` registered a melting point of 149 °C.

Compound `CCOC1C(NC(=O)C(F)(F)F)CC(OC)OC1C` (configuration not stated) registered a melting point of 183 to 185 °C.

Consider `COC(=O)C1CSc2sccc2C1=O` (configuration not stated), for which the melting point was in the range of 94 to 97 °C.

In turn, `O=C(O)c1cc(S(=O)(=O)N2CCCC(OCc3ccccc3)C2)ccc1Br` (configuration not stated) showed a melting point of 177 to 178 °C.

On to `CCOC(=O)C(CCCCCCN1C(=O)c2ccccc2C1=O)(NC(C)=O)C(=O)OCC`, for which the melting point was in the range of 68.5 to 70 °C.

The compound `CSc1ncnc2c(N3CCSCC3)nc(N3CCNCC3)nc12` came in with a melting point of 177 to 179 °C.

In turn, `N[C@@H](Cc1ccccc1)C(=O)N(C(=O)Cc1cc(F)cc(F)c1)[C@@H]1C(=O)Nc2ccccc2S[C@@H]1c1ccccc1` came in with a melting point of 115 to 120 °C.

`Cc1nc(N)c2nc(C)n(CCCCCS(=O)(=O)c3ccccc3)c2c1C` yielded a melting point of 166 to 167 °C.

In turn, `CCNC(=O)Nc1c(C(=O)c2ccccc2)[nH]c2cc(Cl)ccc12` had a melting point of 222 to 235 °C.

Compound `CCCn1c(CC)c2c3c(cccc31)C1CC(NC(=S)N(CC)CC)CN(C)C1C2` (configuration not stated) displayed a melting point of 173 to 175 °C.

On to `CC(=O)N1CCC(C(=O)c2nccn2CCc2ccccc2)CC1`, for which the melting point lay in the range of 113 to 116 °C.

For `O=C(O)Cn1c(-c2ccc(C(F)(F)F)cc2)nc2cccnc21`, the melting point fell in the range of 240 to 241 °C.

In the case of `CNC(=O)Nc1cccc2c1C(=O)c1c-2n[nH]c1-c1ccc(OC)cc1`, the melting point was greater than 300 °C.

Compound `CN1CCN(c2ccc(N/C=C3\CN=Cc4ccccc43)cc2)CC1` yielded a melting point of 245 to 246 °C.

With `COC(=O)CCCc1cc2nc(Cl)ccc2n1S(=O)(=O)c1ccc(-c2nccs2)cc1`, the melting point was 101 °C.

Regarding `O=[N+]([O-])c1cn2c(n1)OC[C@@H](OCc1ccc(Br)cn1)C2`, the melting point lay in the range of 171 to 173 °C.

Regarding `CC1(C)CCC(C)(C)c2cc(C(=O)COc3ccc(C(=O)OCc4ccccc4)c(O)c3)ccc21`, the melting point lay in the range of 103 to 104 °C.

`NC(=O)c1cccc(-c2nc3sccn3c2-c2ccnc(N[C@@H]3CCCNC3)n2)c1` came in with a melting point of 202 to 205 °C.

Compound `CC(C)(C)OC(=O)NC(Cc1ccc(C=O)cc1)C(=O)N1CCCC1` (configuration not stated) had a melting point of 134 °C.

Consider `CCC(=O)Nc1cc(-n2cccn2)nc(-c2ccc(Cl)o2)n1`, for which the melting point lay within 189 to 190 °C.

In turn, `CN1CC(=O)Nc2cccc(Br)c2C1=O` came in with a melting point of 232 to 233 °C.

Turning to `Nc1ccc(S(=O)(=O)Nc2ccn(C3CCCCC3)c(=O)n2)cc1`, the melting point was 100 to 120 °C.

As to `O=C(c1ccccc1)c1ccc(OCCCCOc2ccc(C(=O)c3ccccc3)cc2)cc1`, the melting point fell in the range of 163 to 164 °C.

As for `O=C(OCC=Cc1ccccc1)C(=C1NCCCS1)[N+](=O)[O-]`, the melting point is 115 to 116 °C.

Compound `Cc1cccc(-c2nc3ccc(Cl)cn3c2-c2ccnc(-c3ccc(CN4CCCC4)cc3)c2)n1` gave a melting point of 134 °C.

As to `CN=C(NS(=O)(=O)c1ccc(Cl)cc1)SC`, the melting point is 121 to 123 °C.

`COc1ccc(OC)c(C2(OC)C(=O)Nc3ccc(Cl)cc32)c1` (configuration not stated) gave a melting point of 180 °C.

On to `O=C(NCCSCc1cccc(C(F)(F)F)c1)c1c(Cl)cccc1Cl`, for which the melting point lay in the range of 54 to 55 °C.

`CN(C)CCN(C)C(=O)Cn1nc(-c2ccccc2O)nc1-c1ccccc1O` yielded a melting point of 172 to 174 °C.

Compound `COc1nc2cc(Br)cc(CNC(=O)C(=O)O)c2nc1OC` gave a melting point greater than 300 °C.
